Read-outs that look alike come from different tables or passages of the source.
Assays:
[1] = log P by HPLC on reversed-phase columns (OECD Guideline 117), neutral range; format: physicochemical; settings: for chromatographic logP: reversed-phase (C18) HPLC column
Myzus persicae [2] = assay: Myzus persicae spray test (MYZUPE), Chinese cabbage leaf discs; format: in vivo; settings: for Emax at 100 g/ha / pest or weed control at 500 g/ha: Myzus persicae, foliar; for Emax at 100 g/ha: read-out: % efficacy; for pest or weed control at 500 g/ha: read-out: efficacy
Description: Myzus persicae—Spray Test
(§1) To produce a suitable preparation of active compound, 1 part by weight of active compound is dissolved using the specified parts by weight of solvent and made up with water containing an emulsifier concentration of 1000 ppm until the desired concentration is attained. To produce further test concentrations, the formulation is diluted with emulsifier-containing water.
Discs of Chinese cabbage leaves (Brassica pekinensis) infested by all stages of the green peach aphid (Myzus persicae) are sprayed with an active compound formulation of the desired concentration.
After 5 or 6 days, the efficacy in % is determined. 100% means that all the aphids have been killed; 0% means that no aphids have been killed.
Myzus persicae—Spray Test (MYZUPE)
Discs of Chinese cabbage leaves (Brassica pekinensis) infested by all stages of the green peach aphid (Myzus persicae) are sprayed with an active compound preparation of the desired concentration.
After the desired period of time, the efficacy in % is determined. 100% means that all the aphids have been killed; 0% means that no aphids have been killed.

Aphis gossypii = Aphis gossypii spray test on cotton plants; format: in vivo; settings: for pest or weed control at 20 ppm: Aphis gossypii, 144 h, read-out: efficacy (kill)
Description: Aphis gossypii—Spray Test
Solvent: 14 parts by weight of dimethylformamide
Emulsifier: alkylaryl polyglycol ether
as §1, with “water. If the addition of ammonium salts or/and penetrants is required, these are each added in a concentration of 1000 ppm to the formulation solution.” for “water.”
Cotton plants (Gossypium hirsutum) which are heavily infested by the cotton aphid (Aphis gossypii) are sprayed with an active compound formulation of the desired concentration.
After 6 days, the kill in % is determined. 100% means that all the aphids have been killed; 0% means that no aphids have been killed.

Myzus persicae [3] = assay: Myzus persicae oral test (MYZUPE O); format: in vivo; settings: for Emax at 4 ppm / pest or weed control at 20 ppm / Emax at 0.8 ppm: Myzus persicae, po, 120 h; for Emax at 4 ppm / Emax at 0.8 ppm: read-out: % efficacy; for pest or weed control at 20 ppm: read-out: efficacy
Description: Solvent: 100 parts by weight of acetone
To produce a suitable preparation of active compound, 1 part by weight of active compound is dissolved using the specified parts by weight of solvent and made up with water until the desired concentration is attained.
50 μl of the active compound preparation are transferred into microtitre plates and made up to a final volume of 200 μl with 150 μl of IPL41 insect medium (33%+15% sugar). Subsequently, the plates are sealed with parafilm, which a mixed population of green peach aphids (Myzus persicae) within a second microtitre plate is able to puncture and imbibe the solution through it.
After 5 days, the efficacy in % is determined. 100% means that all the aphids have been killed; 0% means that no aphids have been killed.
Myzus persicae—Oral Test (MYZUPE O)
After 5 or 6 days (dat), the efficacy in % is determined. 100% means that all the aphids have been killed; 0% means that no aphids have been killed.

[4] = after 5 days, application rate 500 g/ha
[5] = after 6 days, application rate 20 ppm, cotton plants
[6] = after 5 days, application rate 20 ppm
[7] = after 6 days, application rate 500 g/ha
[8] = HPLC, neutral range pH 7.8, read-out: LogP-neutral
[9] = 120 h, after 5 days, application rate 500 g/ha
[10] = 144 h, MYZUPE, 100 g of ai/ha, 6 dat
[11] = 120 h, MYZUPE, 100 g of ai/ha, 5 dat

LogP-neutral ([1]; pH 7.8)	Compound	efficacy (Myzus persicae [2]; [4])	efficacy (kill) (Aphis gossypii; [5])	efficacy (Myzus persicae [3]; [6])	also measured
	CN(C(=O)c1cnc(Oc2cccc(Cl)c2)n1C)c1cccnc1 [Example II-2]				chromatographic logP ([1]; pH 7.8, HPLC-MS, neutral, read-out: log P[n]): 2.1; Emax at 100 g/ha (Myzus persicae [2]; 144 h): 100%; pest or weed control at 500 g/ha (Myzus persicae [2]; 144 h): 100%; pest or weed control at 20 ppm (Aphis gossypii): 100%; Emax at 4 ppm (Myzus persicae [3]): 100%; pest or weed control at 20 ppm (Myzus persicae [3]): 100%
1.45	CSCCOc1ncc(C(=O)N(C)c2cccnc2)n1C [Example II-6]		99%	100%	efficacy (Myzus persicae [2]; [7]): 90%
	CN(C(=O)c1cnc(Oc2ccc(Cl)cc2)n1C)c1cccnc1 [Example II-9]		100%	100%	LogP-neutral ([1]; HPLC, neutral range pH 7.8): 2.09; efficacy (Myzus persicae [2]; [7]): 90%
	COc1ncc(C(=O)N(C)c2cccnc2)n1C [Example II-12]				chromatographic logP [1, 8]: 0.9; pest or weed control at 500 g/ha (Myzus persicae [2]; [9]): 100%; Emax at 100 g/ha (Myzus persicae [2]; [10]): 90%; pest or weed control at 20 ppm (Aphis gossypii; [5]): 100%; Emax at 0.8 ppm (Myzus persicae [3]; MYZUPE O, 0.8 ppm, 5 dat): 100%; Emax at 4 ppm (Myzus persicae [3]; MYZUPE O, 4 ppm, 5 dat): 100%; pest or weed control at 20 ppm (Myzus persicae [3]; [6]): 100%
	CN(C(=O)c1cnc(Oc2ccc(Cl)nc2)n1C)c1cccnc1 [Example II-15]				chromatographic logP [1, 8]: 1.53; Emax at 100 g/ha (Myzus persicae [2]; [10]): 100%; pest or weed control at 500 g/ha (Myzus persicae [2]; 144 h, after 6 days, application rate 500 g/ha): 100%; pest or weed control at 20 ppm (Aphis gossypii; [5]): 100%; Emax at 0.8 ppm (Myzus persicae [3]; MYZUPE O, 0.8 ppm, 5 dat): 100%; pest or weed control at 20 ppm (Myzus persicae [3]; [6]): 100%
1.86	CN(C(=O)c1cnc(Oc2ccc(F)cc2F)n1C)c1cccnc1 [Example II-17]		100%	100%	efficacy (Myzus persicae [2]; [7]): 100%
	CN(C(=O)c1cnc(Oc2ccccc2)n1C)c1cccnc1 [Example II-24]	100%	98%	100%	LogP-neutral ([1]; HPLC, neutral range pH 7.8): 1.68
2.01	CN(C(=O)c1cnc(Oc2cc(F)cc(F)c2)n1C)c1cccnc1 [Example II-25]	90%	90%	100%	
2.09	CSc1cccc(Oc2ncc(C(=O)N(C)c3cccnc3)n2C)c1 [Example II-26]	100%	100%	100%	
2.52	CN(C(=O)c1cnc(Oc2cccc(OC(F)(F)F)c2)n1C)c1cccnc1 [Example II-27]	100%	98%	100%	
	CN(C(=O)c1cnc(Oc2cccc(C(F)(F)F)c2)n1C)c1cccnc1 [Example II-29]				chromatographic logP [1, 8]: 2.37; Emax at 100 g/ha (Myzus persicae [2]; [11]): 90%; pest or weed control at 500 g/ha (Myzus persicae [2]; [9]): 100%; pest or weed control at 20 ppm (Aphis gossypii; [5]): 100%; Emax at 0.8 ppm (Myzus persicae [3]; MYZUPE O, 0.8 ppm, 5 dat): 100%; Emax at 4 ppm (Myzus persicae [3]; MYZUPE O, 4 ppm, 5 dat): 100%; pest or weed control at 20 ppm (Myzus persicae [3]; [6]): 100%
1.97	CN(C(=O)c1cnc(OCCSCC(F)(F)F)n1C)c1cccnc1 [Example II-30]	100%	100%	100%	% efficacy (Myzus persicae [2]; MYZUPE, 100 g of ai/ha, 5 dat): 90%; % efficacy (Myzus persicae [3]; MYZUPE O, 0.8 ppm, 5 dat): 100%; % efficacy (Myzus persicae [3]; MYZUPE O, 4 ppm, 5 dat): 100%
	CN(C(=O)c1cnc(OC2CCSCC2)n1C)c1cccnc1 [Example II-31]				chromatographic logP [1, 8]: 1.63; Emax at 100 g/ha (Myzus persicae [2]; [11]): 90%; pest or weed control at 500 g/ha (Myzus persicae [2]; [9]): 100%; pest or weed control at 20 ppm (Aphis gossypii; [5]): 98%; Emax at 0.8 ppm (Myzus persicae [3]; MYZUPE O, 0.8 ppm, 5 dat): 70%; Emax at 4 ppm (Myzus persicae [3]; MYZUPE O, 4 ppm, 5 dat): 100%; pest or weed control at 20 ppm (Myzus persicae [3]; [6]): 100%
1.18	CN(C(=O)c1cnc(OC2CCOCC2)n1C)c1cccnc1 [Example II-32]	90%	100%	100%	
	CN(C(=O)c1cnc(OCCCF)n1C)c1cccnc1 [Example II-33]	90%	100%	100%	LogP-neutral ([1]; HPLC, neutral range pH 7.8): 1.26
2.51	CN(C(=O)c1cnc(OCCC(F)(C(F)(F)F)C(F)(F)F)n1C)c1cccnc1 [Example II-34]	100%	100%	100%	
	CN(C(=O)c1cnc(OC2CCOC2)n1C)c1cccnc1 (stereo not shown) [Example II-35]	90%	100%	100%	LogP-neutral ([1]; HPLC, neutral range pH 7.8): 1
	CCN(C(=O)c1cnc(Oc2ccc(Cl)nc2)n1C)c1cccnc1 [Example II-36]	90%	100%	100%	LogP-neutral ([1]; HPLC, neutral range pH 7.8): 1.79
2.55	CN(C(=O)c1cnc(Oc2cc(F)cc(C(F)(F)F)c2)n1C)c1cccnc1 [Example II-86]	100%		100%	
2.26	COc1cc(Cl)cc(Oc2ncc(C(=O)N(C)c3cccnc3)n2C)c1 [Example II-88]	90%		100%	
	Cn1c(C(=O)N(c2cccnc2)C2CC2)cnc1Oc1ccc(Cl)nc1 [Example II-90]			100%	LogP-neutral ([1]; HPLC, neutral range pH 7.8): 1.8; efficacy (Myzus persicae [2]; after 5 days, application rate 100 g/ha): 90%
	Cn1c(C(=O)N(c2cccnc2)C2CC2)cnc1Oc1cncc(C(F)(F)F)c1 [Example II-91]				chromatographic logP [1, 8]: 2.1; Emax at 100 g/ha (Myzus persicae [2]; [11]): 90%; pest or weed control at 500 g/ha (Myzus persicae [2]; [9]): 90%; Emax at 0.8 ppm (Myzus persicae [3]; MYZUPE O, 0.8 ppm, 5 dat): 70%; Emax at 4 ppm (Myzus persicae [3]; MYZUPE O, 4 ppm, 5 dat): 90%; pest or weed control at 20 ppm (Myzus persicae [3]; [6]): 100%
	Cn1c(C(=O)N(c2cccnc2)C2CC2)cnc1Oc1cccc(Cl)c1 [Example II-93]	90%		100%	LogP-neutral ([1]; HPLC, neutral range pH 7.8): 2.41
	CCN(C(=O)c1cnc(Oc2ccc(F)nc2)n1C)c1cccnc1 [Example II-95]				chromatographic logP [1, 8]: 1.55; Emax at 100 g/ha (Myzus persicae [2]; 120 h): 100%; pest or weed control at 500 g/ha (Myzus persicae [2]; 120 h): 100%; Emax at 0.8 ppm (Myzus persicae [3]): 100%; Emax at 4 ppm (Myzus persicae [3]): 90%; pest or weed control at 20 ppm (Myzus persicae [3]): 100%

Compound	LogP-neutral ([1]; pH 7.8)	efficacy (Myzus persicae [2]; [4])	efficacy (kill) (Aphis gossypii; [5])	efficacy (Myzus persicae [3]; [6])	also measured
CC(C)Oc1ncc(C(=S)N(C)c2cccnc2)n1C [Example II-3]	1.99	90%	100%	100%	
CC(C)Oc1ncc(C(=O)N(C)c2ccc[n+]([O-])c2)n1C [Example II-4]	1.03	90%	100%	100%	
CCCOc1ncc(C(=O)N(C)c2cccnc2)n1C [Example II-5]	1.52		100%	90%	efficacy (Myzus persicae [2]; [7]): 90%
COCCCOc1ncc(C(=O)N(C)c2cccnc2)n1C [Example II-7]	1.27		100%	100%	efficacy (Myzus persicae [2]; [7]): 100%
CN(C(=O)c1cnc(OCc2cccnc2)n1C)c1cccnc1 [Example II-8]	1.16		99%	100%	efficacy (Myzus persicae [2]; [7]): 90%
CCOc1ncc(C(=O)N(C)c2cccnc2)n1C [Example II-10]	1.19		100%	100%	efficacy (Myzus persicae [2]; [7]): 100%
Cc1ccc(Oc2ncc(C(=O)N(C)c3cccnc3)n2C)cc1Cl [Example II-85]	2.45	100%		90%	
CCN(C(=O)c1cnc(Oc2cncc(C(F)(F)F)c2)n1C)c1cccnc1 [Example II-92]	2.04	100%		100%	
